From US9914932B2, “Agrobacterium-mediated transformation of lipomyces” (Battelle Memorial Institute, priority 2014, dated 2018)

Experiments:
[1] = test system: all L. starkeyi strains and Lipomyces species; experiment: Hygromycin B growth suppression on YPD agar plates; type: cell-based, Lipomyces sp.; conditions: 30° C., all strains and species except L. suomiensis NRRL Y-17356, FIG. 4
Source text: (§1) For effective selection of transgene expression in Lipomyces strains, several antibiotics were chosen to examine their effects on Lipomyces growth on yeast synthetic complete (SC, Sunrise Science Products, San Diego, Calif.) and yeast extract-peptone-detrose (YPD) medium plates, which included phosphinothricin ammonium (basta), geneticin (G418), hygromycin B (hyg), pyrithiamine and Zeocin (Zeo). Two day old Lipomyces cells grown in YPD liquid culture were used for evaluation of the antibiotic selection on the agar plates of SC or YPD. The original cells were diluted sequentially in 1:10 ratio with dH2O for four times and 10 μl cells from original culture and each dilution were spotted onto the proper agar medium plates. The plates were incubated in 30° C. incubator for 3 days. The inhibition effects of selected antibiotics on the selected plate were documented with Nikon D300s SLR digital camera (Nikon Inc., Melville, N.Y.) or the stereomicroscope-Leica MZ16 (Leica Microsystems, Buffalo Grove, Ill.).
(§2) About 5 to 10 colonies of 4 day old Lipomyces strains (except L. lipofer NRRL Y-11555 that required additional 4 days growth and more colonies due to its slow growth) grown on YPD medium agar plates were transferred into a 50 ml YPD liquid flask culture and grown at 30° C. and 200 rpm for 50 hrs. […]

[2] = test system: Lipomyces strains; experiment: Hygromycin B inhibition on Aspergillus minimal medium; type: cell-based, Lipomyces sp.; conditions: 10 mg/l
[3] = test system: L. suomiensis strain NRRL Y-17356; experiment: Hygromycin B growth suppression on YPD agar plates; type: cell-based, Lipomyces suomiensis; conditions: 30° C., L. suomiensis NRRL Y-17356, FIG. 4
Source text: as §1, §2

[4] = test system: L. doorenjongii (NRRL Y-27504); experiment: Antibiotic growth suppression on SC medium agar plates; type: cell-based, Lipomyces doorenjongii; conditions: 100 mg/l, 30° C., FIG. 3
Source text: as §1, §2

[5] = test system: parent Lipomyces strains (Y-); experiment: Hygromycin resistance of parent Lipomyces cells, 1/10 series dilutions on YPD agar plates; type: cell-based, Lipomyces sp.; conditions: 10 or 25 mg/l hygromycin B with 250 mg/L cefotaxime, FIG. 10
Method: The hygromycin resistance of parent and transformed Lipomyces cells in a 1/10 series dilutions were compared on the same YPD agar plates with either 10 or 25 mg/l hygromycin B (hyg10 or hyg25, respectively) and 250 mg/L cefotaxime. […] The integration of pTef1-hph transgene expression cassette (FIG. 11A) was also confirmed by Southern blotting analysis which indicated 1 to 2 copies of the gene were inserted (FIG. 11B).

[6] = test system: L. lipofer (NRRL Y-11555); experiment: Antibiotic growth suppression on SC medium agar plates; type: cell-based, Lipomyces lipofer; conditions: 100 mg/l, 30° C., FIG. 3
Source text: as §1, §2

[7] = test system: L. starkeyi; experiment: Antibiotic growth suppression on yeast synthetic complete (SC) medium agar plates; type: cell-based, Lipomyces starkeyi; conditions: 30° C.
Source text: as §1, §2

CN[C@H]1C[C@@H](N)[C@H](O)[C@@H](O[C@@H]2O[C@H](CO)[C@H](O)[C@@H]3OC4(O[C@H]23)O[C@H]([C@@H](N)CO)[C@H](O)[C@H](O)[C@H]4O)[C@@H]1O (some centres unmarked) [hygromycin B]
concentration sufficient to suppress the growth [1]: 2.5 mg/L
inhibition of Lipomyces strains [2]: effective inhibition
concentration needed to suppress the growth [3]: at least 10 mg/l
growth suppression of L. doorenjongii (NRRL Y-27504) [4]: effectively suppress the growth
growth of parent strains under hygromycin selection [5]: severely suppressed
growth suppression of L. lipofer (NRRL Y-11555) [6]: effectively suppress the growth
growth selection (growth suppression) of L. starkeyi ([7]; 100 mg/l hygromycin B, FIG. 2): effective
growth suppression of three other L. starkeyi strains (NRRL Y-27493, NRRL Y-27494, NRRL Y-27495) ([7]; 100 mg/l, FIG. 3): effectively suppress the growth
